Data from PubChem BioAssay AID743104 (Vanderbilt Specialized Chemistry Center, 2013).
pIC50: −log10 of the molar value.

Target: Muscarinic acetylcholine receptor M5 (Rattus norvegicus) (UniProt P08911)
Assay: species ortholog inhibition of rat M5 response – cell-based, CHO-K1, Fluo-4 calcium flux, selectivity assay for human M5 NAM project (AID 743104)
Details: CHO-K1 rat M5, Fluo-4 calcium flux, ACh EC20

Sequence of Muscarinic acetylcholine receptor M5 (Rattus norvegicus) (P08911 whole entry, looked up): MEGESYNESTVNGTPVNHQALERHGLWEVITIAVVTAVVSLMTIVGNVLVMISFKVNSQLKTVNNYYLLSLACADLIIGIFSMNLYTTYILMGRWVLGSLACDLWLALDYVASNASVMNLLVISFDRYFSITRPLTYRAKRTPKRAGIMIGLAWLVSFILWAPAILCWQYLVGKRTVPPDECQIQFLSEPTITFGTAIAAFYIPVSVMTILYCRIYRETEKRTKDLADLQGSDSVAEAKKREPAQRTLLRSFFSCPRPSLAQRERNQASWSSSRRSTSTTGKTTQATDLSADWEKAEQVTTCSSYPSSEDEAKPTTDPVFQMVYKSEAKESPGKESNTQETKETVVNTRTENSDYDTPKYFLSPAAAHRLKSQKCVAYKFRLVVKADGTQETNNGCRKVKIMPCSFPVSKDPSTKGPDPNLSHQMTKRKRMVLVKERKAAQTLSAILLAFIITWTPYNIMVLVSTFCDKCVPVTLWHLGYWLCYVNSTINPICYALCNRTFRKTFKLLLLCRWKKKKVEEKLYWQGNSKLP

pIC50 | SMILES
5.70 | O=C(c1ccc(F)c(F)c1)N1CCN2C(=O)c3ccccc3C12c1ccccc1 (stereo not drawn)
5.21 | O=C(c1ccc(F)cc1)N1CCN2C(=O)c3ccccc3C12c1ccccc1 (stereo not drawn)
5.45 | O=C(c1cc(F)cc(F)c1)N1CCN2C(=O)c3ccccc3C12c1ccc(Cl)cc1 (stereo not drawn)
